Values joined by “and” are separate entries in the source; they are usually repeats but may differ in a detail not shown here. Equal entries are not always repeated.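 Each compound was tested at five concentrations against cells in 96-well plates for 48 hours. GI50 = concentration required for 50% inhibition of growth. TGI: total growth inhibition.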 Bounds are passed on as bounds.

Among the test systems are DU-145 prostate; HS 578T breast; MALME-3M melanoma; NCI-H460 lung; NCI-H522 lung; SF-295 CNS; UACC-62 melanoma.
Holding throughout (experiment): NCI tumour cell line growth inhibition, 48 h

Turning to `Fc1cccc(C2ON=C(c3ccccc3)N2C23CC4CC(CC(C4)C2)C3)c1` (configuration not stated), the TGI with DU-145 prostate, with HS 578T breast, in the test with MALME-3M melanoma, with NCI-H460 lung, in the test with NCI-H522 lung and in the test on SF-295 CNS was more than 10 µM each time. The TGI with UACC-62 melanoma is more than 10 µM.
As to `COc1cc(/C=C/C(=O)/C=C/c2ccc(-n3ccnc3)cc2)ccc1O`, the GI50 in the test on DU-145 prostate is 3.36 µM; in the test with HS 578T breast, 2.91 µM; with MALME-3M melanoma it was 5.4 µM; with NCI-H460 lung, 14.1 µM; in the test with NCI-H522 lung it was 4.98 µM; in the test with SF-295 CNS, 14 µM. In addition, the GI50 with UACC-62 melanoma is 5.01 µM. Moreover, the TGI in the test with DU-145 prostate was 10.1 µM; with HS 578T breast, more than 100 µM; in the test on MALME-3M melanoma, 36.7 µM; in the test with NCI-H460 lung, 34.9 µM; with NCI-H522 lung it was 18.9 µM; in the test on SF-295 CNS, 33 µM. The same molecule displayed a TGI with UACC-62 melanoma of 30.2 µM.
For the molecule `CC(C)(C)OC(=O)CC(S(=O)(=O)c1ccccc1)S(=O)(=O)c1ccccc1`, the GI50 with DU-145 prostate is 15.2 µM; in the test on HS 578T breast, 22 µM; in the test with MALME-3M melanoma, 2.08 µM; in the test on NCI-H460 lung, 19.5 µM; in the test with NCI-H522 lung, 1.65 µM; in the test with SF-295 CNS, more than 100 µM. Moreover, the GI50 in the test with UACC-62 melanoma was 11.4 µM. Further, the TGI in the test with DU-145 prostate was 28.8 µM; with HS 578T breast, 81.4 µM; in the test on MALME-3M melanoma it was 4.36 µM; with NCI-H460 lung it was 39.4 µM; with NCI-H522 lung, 3.53 µM; in the test on SF-295 CNS, more than 100 µM. The same molecule returned a TGI in the test with UACC-62 melanoma of 24.1 µM.
In the case of `COc1ccc(N=C2C(=O)Nc3ccc(Br)cc32)cc1`, the TGI is more than 100 µM in the test with DU-145 prostate; more than 100 µM in the test on HS 578T breast; 43 µM in the test on MALME-3M melanoma; 78.4 µM in the test with NCI-H460 lung; 24.9 µM with NCI-H522 lung; more than 100 µM in the test with SF-295 CNS. For the same molecule, in the test with UACC-62 melanoma, the TGI turned out to be 19.9 µM.
With `C#CCN(CCCOc1ccc(Cl)cc1Cl)CCCSC(=O)CCCCCN1/C(=C\C=C2/CCCC(/C=C/C3=[N+](CCCCCC(=O)[O-])c4ccccc4C3(C)C)=C2Cl)C(C)(C)c2ccccc21`, the GI50 was 3.02 µM in the test on DU-145 prostate; 1.47 µM in the test with HS 578T breast; 1.21 µM in the test with MALME-3M melanoma; 1.77 µM in the test on NCI-H460 lung; 1.16 µM in the test on NCI-H522 lung; 1.91 µM in the test on SF-295 CNS. Also, the GI50 with UACC-62 melanoma is 1.15 µM. The TGI with DU-145 prostate turned out to be 10.9 µM; with HS 578T breast, 6.4 µM; with MALME-3M melanoma, 2.85 µM; in the test on NCI-H460 lung it was 5.01 µM; in the test with NCI-H522 lung, 3.34 µM; in the test on SF-295 CNS, 4.06 µM. The same molecule showed a TGI in the test on UACC-62 melanoma of 3.14 µM.
On to `COc1ccc(C2=NOC3=c4ccccc4=CSC3=C2c2ccccc2)cc1`, for which the GI50 in the test with DU-145 prostate was 19.8 µM; in the test with HS 578T breast it was 47.4 µM; in the test on MALME-3M melanoma it was 43.7 µM; in the test on NCI-H460 lung, 21.5 µM; with NCI-H522 lung, more than 100 µM; with SF-295 CNS, 48.9 µM. Moreover, the GI50 with UACC-62 melanoma is 22 µM. Also, the TGI in the test on DU-145 prostate was more than 100 µM; with HS 578T breast it was more than 100 µM; in the test on MALME-3M melanoma, more than 100 µM; with NCI-H460 lung it was 89 µM; in the test on NCI-H522 lung, more than 100 µM; with SF-295 CNS, more than 100 µM. In the test on UACC-62 melanoma, this molecule showed a TGI of 85 µM.
As to `CN(Cc1cnc2nc(N)nc(N)c2n1)c1c(Cl)cc(C(=O)NC(CCC(=O)O)C(=O)O)cc1Br` (configuration not stated), the GI50 in the test on DU-145 prostate was less than 0.01 µM; in the test on HS 578T breast, 17.8 µM; in the test on MALME-3M melanoma, 0.0322 µM; in the test with NCI-H460 lung, less than 0.01 µM; in the test with NCI-H522 lung, 0.0391 µM; in the test on SF-295 CNS it was less than 0.01 µM. Moreover, the GI50 in the test with UACC-62 melanoma is less than 0.0118 µM. Further, the TGI with DU-145 prostate, with HS 578T breast, in the test on MALME-3M melanoma, with NCI-H460 lung, with NCI-H522 lung and in the test with UACC-62 melanoma was more than 100 µM in each case.
`CC(C)OC(=O)c1cc(NC(=S)OC(C)C)ccc1Cl`: the TGI in the test on DU-145 prostate was more than 62.1 µM; in the test on HS 578T breast, more than 79.8 µM; in the test on MALME-3M melanoma, more than 56.9 µM; in the test with NCI-H460 lung it was more than 55.3 µM; with NCI-H522 lung, 26.6 µM; in the test with SF-295 CNS it was 46.9 µM. Besides, in the test with UACC-62 melanoma, the TGI amounted to 31.2 µM.
Regarding `c1ccc2[nH]c(-c3cscn3)nc2c1`, the TGI in the test with DU-145 prostate, in the test on HS 578T breast, with MALME-3M melanoma, in the test on NCI-H460 lung, with NCI-H522 lung and in the test on SF-295 CNS was more than 100 µM throughout. In addition, the TGI with UACC-62 melanoma is more than 100 µM.
As for `CN1CCC(C(=O)Nc2n[nH]c3nnc(-c4ccccc4)cc23)CC1`, the GI50 is more than 25 µM with DU-145 prostate; 16.5 µM in the test with HS 578T breast; more than 25 µM in the test on MALME-3M melanoma; more than 25 µM in the test on NCI-H460 lung; more than 25 µM in the test with NCI-H522 lung; 17.5 µM in the test with SF-295 CNS. In the test on UACC-62 melanoma, the GI50 was more than 25 µM. Besides, the TGI in the test on DU-145 prostate, with HS 578T breast, in the test on MALME-3M melanoma, in the test with NCI-H460 lung, in the test on NCI-H522 lung and with SF-295 CNS was more than 25 µM in each case. This molecule displayed a TGI in the test on UACC-62 melanoma of more than 25 µM.
On to `CCCCCCCC(=O)OC[n+]1cccc(-c2c(COC(=O)NC(C)C)c(COC(=O)NC(C)C)c3n2CCC3)c1`, for which the TGI in the test with DU-145 prostate, in the test with HS 578T breast, in the test on MALME-3M melanoma, with NCI-H460 lung, with NCI-H522 lung and in the test on SF-295 CNS was more than 100 µM in each case. Besides, the TGI in the test on UACC-62 melanoma is more than 100 µM.
Consider `O=C(/C=C/c1ccccn1)c1ccccc1`, for which the GI50 in the test on DU-145 prostate is 13.1 µM; with HS 578T breast it was 12.5 µM; with MALME-3M melanoma, 13.8 µM; in the test with NCI-H460 lung, 4.44 µM; with NCI-H522 lung, 1.65 µM; in the test on SF-295 CNS it was 15.7 µM. Further, the GI50 in the test with UACC-62 melanoma was 2.33 µM. Moreover, the TGI in the test on DU-145 prostate turned out to be 25.7 µM; in the test with HS 578T breast, 39.4 µM; with MALME-3M melanoma it was 35.1 µM; in the test on NCI-H460 lung it was 18.1 µM; in the test with NCI-H522 lung, 3.1 µM; in the test with SF-295 CNS it was 32.2 µM. The same molecule returned a TGI in the test with UACC-62 melanoma of 7 µM.
Take `COc1ccccc1CNCCCN1C(=O)c2ccc3c4c(ccc(c24)C1=O)C(=O)N(CCCNCCCCN)C3=O`: the GI50 with DU-145 prostate is 0.664 µM; in the test with HS 578T breast, 1.14 µM; in the test on MALME-3M melanoma, 0.176 µM; in the test with NCI-H460 lung, 0.313 µM; with NCI-H522 lung, 0.182 µM; with SF-295 CNS, 0.678 µM. In addition, the GI50 with UACC-62 melanoma was 0.237 µM. In addition, the TGI amounted to 2.35 µM with DU-145 prostate; 5.91 µM with HS 578T breast; 0.327 µM in the test on MALME-3M melanoma; 1 µM with NCI-H460 lung; 0.367 µM in the test on NCI-H522 lung; 2.79 µM in the test on SF-295 CNS. Further, the TGI in the test on UACC-62 melanoma was found to be 0.674 µM.
Turning to `COc1ccc2cc1Oc1ccc(cc1)CC1c3c(cc(OC)c4c3Oc3cc5c(cc3O4)CCNC5C2)CCN1C` (configuration not stated), the GI50 with DU-145 prostate is 1.54 µM; in the test with HS 578T breast, 1.98 µM; in the test with NCI-H460 lung it was 1.62 µM; in the test with SF-295 CNS, 1.8 µM. For the same molecule, the TGI with DU-145 prostate was 2.87 µM; in the test on HS 578T breast it was 4.71 µM and 4.59 µM; in the test on MALME-3M melanoma, 3.68 µM; in the test with NCI-H460 lung, 3.25 µM; with NCI-H522 lung, 3.27 µM; with SF-295 CNS, 3.42 µM and 3.23 µM. For the same molecule, in the test on UACC-62 melanoma, the TGI amounted to 3.43 µM.
Consider `O=[N+]([O-])/C=C/c1cn(CCCCCCCCn2cc(/C=C/[N+](=O)[O-])c3ccccc32)c2ccccc12`, for which the TGI in the test on DU-145 prostate, in the test on HS 578T breast, with MALME-3M melanoma, in the test on NCI-H460 lung, in the test on NCI-H522 lung and in the test on SF-295 CNS was more than 10 µM each time. This molecule yielded a TGI in the test with UACC-62 melanoma of more than 10 µM.
On to `O=[N+]([O-])/C(=C/C=C/c1ccccc1)c1ccccc1`, for which the GI50 was 1.76 µM with DU-145 prostate; 2.86 µM in the test with HS 578T breast; 1.84 µM with MALME-3M melanoma; 3.3 µM with NCI-H460 lung; 1.62 µM with NCI-H522 lung; 2.56 µM with SF-295 CNS. In addition, in the test with UACC-62 melanoma, the GI50 was 1.55 µM. Besides, the TGI amounted to 3.22 µM in the test on DU-145 prostate; 8.41 µM in the test on HS 578T breast; 5.4 µM with MALME-3M melanoma; 11.3 µM in the test with NCI-H460 lung; 4.08 µM in the test with NCI-H522 lung; 9.08 µM with SF-295 CNS. For the same molecule, in the test with UACC-62 melanoma, the TGI is 3.1 µM.
Regarding `CC(=O)Nc1ccc2c(c1)[nH]c(=O)c1cc(Cl)ccc12`, the TGI is more than 100 µM in the test on DU-145 prostate; more than 100 µM in the test with HS 578T breast; 46.7 µM with MALME-3M melanoma; 52.9 µM in the test on NCI-H460 lung; more than 100 µM in the test with NCI-H522 lung; more than 100 µM in the test on SF-295 CNS. Further, in the test with UACC-62 melanoma, the TGI is more than 100 µM.
Consider `CC1(C)N=C(N)N=C(N)N1c1ccc(CCCCCCc2ccc(S(=O)(=O)F)cc2)cc1`, for which the TGI with DU-145 prostate is 21.1 µM; in the test with HS 578T breast, 30.5 µM; in the test with MALME-3M melanoma, 3.79 µM; in the test on NCI-H460 lung it was more than 37.8 µM; in the test with NCI-H522 lung, 20.2 µM; in the test on SF-295 CNS, 22 µM. The TGI in the test on UACC-62 melanoma worked out at 0.604 µM.
